Data from paper PMC9413440, “An Iterative Approach Guides Discovery of the FabI Inhibitor Fabimycin, a Late-Stage Antibiotic Candidate with In Vivo Efficacy against Drug-Resistant Gram-Negative Infections” (ACS Central Science, 2022).
Converted amounts (≈) assume the structure as drawn. Like-named read-outs stand apart in the source and are kept apart here.

Tests used:
[1] = test system: A. baumannii clinical isolates (n=100); assay: MIC50/MIC90, clinical isolate panel; assay type: cell-based; conditions: Acinetobacter baumannii
E. coli MG1655 = assay: Time-kill kinetics; assay type: cell-based, Escherichia coli; conditions: E. coli MG1655, over 8 h
Experimental: An overnight culture of E. coli MG1655 was diluted in 5 mL of MH broth to ~5.0 * 10^5 CFU/mL and incubated at 37 °C […]
while shaking for 1 hour. […]
the course of 8 hours. At each time point 100 µL of culture was collected and serially diluted in sterile PBS before plating on drug-free agar plates. Colonies were counted after incubation at 37 °C overnight and CFU/mL calculated. […]
All cells were cultured […]
at 37 °C under a 5% CO2 environment. Cell lines were authenticated by a commercial vendor and inspected visually in house. Cell lines were not tested for Mycoplasma contamination. The media was prepared by the University of Illinois School of Chemical Sciences Cell Media Facility.
(§1) H. sapiens HFF-1, A549, and HepG2 cells were seeded (3,000-6,000 cells/well) in a 96-well plate (Greiner Bio-One;

HFF-1, A549, HepG2 cells = conditions: 72 h
Experimental: HFF-1 cells (newborn) were obtained from the ATCC. HFF-1 cells were grown in Dulbecco’s Modified Eagle’s minimum essential medium with 15% fetal bovine serum (Gemini Benchmark; catalogue number: 100-106), 100 µg/mL penicillin and 100 µg/mL streptomycin. A549 cells ([…], adult) were obtained from the ATCC. A549 cells were grown in Roswell Park Memorial Institute (RPMI) media with 100 µg/mL penicillin and 10% fetal bovine serum (FBS). HepG2 cells were authenticated by the University of Arizona Genetics Core using an autosomal STR profile. HepG2 cells were grown in Dulbecco’s Modified Eagle’s minimum essential medium with 10% fetal bovine serum. All cells were cultured at 37 °C under a 5% CO2 environment. Cell lines were authenticated by a commercial vendor and inspected visually in house. Cell lines were not tested for Mycoplasma contamination. The media was prepared by the University of Illinois School of Chemical Sciences Cell Media Facility.
as §1

[2] = test system: A. baumannii 19606 FabI mutants; assay: MIC of fabimycin-resistant mutants; assay type: cell-based; conditions: Acinetobacter baumannii
Experimental: (§2) II. Materials and Methods for Biological Experiments
(§3) S. aureus ATCC 29213 and E. coli MG1655 were obtained from the American Type Culture Collection (ATCC). E. coli BW25113 and E. coli JW5503 were obtained from the Keio Collection. AR-bank strains were obtained from the Centers for Disease Control and Prevention and FDA Antibiotic Resistance Isolate Bank.
(§4) Antimicrobial susceptibility tests
(§5) Susceptibility testing was performed in biological triplicate, unless noted otherwise, using the micro-dilution broth method as outlined by the Clinical and Laboratory Standards Institute. Bacteria were cultured with cation-adjusted Mueller Hinton broth (Sigma Aldrich, catalogue number: 90922). […]
(§6) Error bars represent the standard error of the mean of three biological replicates. All compounds evaluated in biological assays were ≥95% pure.
(§7) Selection of resistant mutants
(§8) Resistant mutants were generated using the large inoculum method. Briefly, S. aureus 29213, E. coli MG1655, and A. baumannii 19606 (~1 x 1010 CFUs) was plated on 100-mm plates (E. coli and A. baumannii) or 150-mm plates (S. aureus) of MH agar containing either 128, 64, or 32 µg/mL fabimycin (for gram-negatives) or 0.125, 0.062, and 0.031 µg/mL fabimycin (for S. aureus). Plates were incubated at 37 °C for 48 h and counted for the presence of colony forming units.
(§9) Glycerol stocks of selected colonies were made, and resistant colonies confirmed by growing on agar plates containing the same concentration of fabimycin that they were generated at.
(§10) Sequencing of bacterial fabI
(§11) The FabI gene was amplified by PCR. Fabimycin-resistant colonies were picked and diluted in 100 µL sterile, nuclease-free H2O. PCR reactions were then set up by combining 14 µL H2O, 1 µL 20 µM primer mix, 10 µL template (bacteria solution in H2O), and 25 µL MiFi Mix (Bioline). The reaction was performed on a C1000 Thermal Cycler (Bio-Rad) under the following conditions for 35 cycles: initial denature: 95 °C for 3 min; denature 95 °C for 15 s; anneal: 57 °C for 15 s; extend 72 °C for 30 s; final extend: 72 °C for 3 min. A 10 µL portion of PCR reaction mixture was analyzed by agarose gel electrophoresis to confirm the single 1.4-kilobase pair product. PCR products were purified using a GeneJET PCR Purification Kit (Thermo Fischer Scientific). PCR amplicons were submitted to the Core DNA Sequencing Facility at the University of Illinois at Urbana-Champaign for Sanger sequencing with overlapping internal primers. All primers were obtained from Integrated DNA Technologies.
(§12) Primers for sequencing of fabI gene in select pathogens: […]
(§13) Organism Sequence Reference
(§14) Forward 5’-GGG-GCC-AGC-GTT-TCT-TTT-TC-3‘ Parker, 20203
(§15) Reverse 5’-AAA-CAT-GGA-GAC-GGT-GCT-GG
(§16) Forward 5’-GTG-AGA-TCG-GCA-TGA-CAC-AA-3’ Lin, 20179
(§17) Reverse 5’-CTG-AAG-TCC-GCT-ACC-GTT-AT-3’
(§18) Compound stability in mammalian plasma
(§19) Candidate drugs were incubated with plasma and parent drug levels were monitored at various time points (generally t=0, 10, 20, 30, and 60 minutes) to determine the drug’s half-life in the presence of the chosen system. Each drug is tested in duplicate. Compounds were diluted from 10 mM DMSO stocks to 1 µM in a 100 mM pH 7.4 phosphate buffer and incubated at 37 °C with 0.5 mg/mL of human, rat, or mouse plasma (BioreclamationIVT, Baltimore, MD). Time points were collected at 0 min (after addition of drug), 15 min, 30 min, 60 min, and 120 min following quenching with an equal volume of acetonitrile. The supernatant was collected after centrifugation, and the sample analyzed by LC-MS where the percentage of compound remaining is plotted vs time to determine the drug’s half-life.
(§20) Compound plasma protein binding
(§21) Candidate drugs were incubated with plasma and parent drug levels are monitored after 4 hours to determine the drug’s free concentration in the presence of the plasma proteins. The standard assay involves equilibrium dialysis, in which compound is allowed to equilibrate between a protein-containing compartment from a protein-free compartment. Each

[3] = test system: E. coli MG1655 FabI mutants; assay: MIC of fabimycin-resistant mutants; assay type: cell-based; conditions: Escherichia coli
Experimental: as §2, §3, §4, §5, §6, §7, §8, §9, §10, §11, §12, §13, §14, §15, §16, §17, §18, §19, §20, §21

hERG ion channel = hERG ion channel (Homo sapiens, UniProt Q12809); assay: hERG activity
Sequence of hERG ion channel (Q12809 whole entry): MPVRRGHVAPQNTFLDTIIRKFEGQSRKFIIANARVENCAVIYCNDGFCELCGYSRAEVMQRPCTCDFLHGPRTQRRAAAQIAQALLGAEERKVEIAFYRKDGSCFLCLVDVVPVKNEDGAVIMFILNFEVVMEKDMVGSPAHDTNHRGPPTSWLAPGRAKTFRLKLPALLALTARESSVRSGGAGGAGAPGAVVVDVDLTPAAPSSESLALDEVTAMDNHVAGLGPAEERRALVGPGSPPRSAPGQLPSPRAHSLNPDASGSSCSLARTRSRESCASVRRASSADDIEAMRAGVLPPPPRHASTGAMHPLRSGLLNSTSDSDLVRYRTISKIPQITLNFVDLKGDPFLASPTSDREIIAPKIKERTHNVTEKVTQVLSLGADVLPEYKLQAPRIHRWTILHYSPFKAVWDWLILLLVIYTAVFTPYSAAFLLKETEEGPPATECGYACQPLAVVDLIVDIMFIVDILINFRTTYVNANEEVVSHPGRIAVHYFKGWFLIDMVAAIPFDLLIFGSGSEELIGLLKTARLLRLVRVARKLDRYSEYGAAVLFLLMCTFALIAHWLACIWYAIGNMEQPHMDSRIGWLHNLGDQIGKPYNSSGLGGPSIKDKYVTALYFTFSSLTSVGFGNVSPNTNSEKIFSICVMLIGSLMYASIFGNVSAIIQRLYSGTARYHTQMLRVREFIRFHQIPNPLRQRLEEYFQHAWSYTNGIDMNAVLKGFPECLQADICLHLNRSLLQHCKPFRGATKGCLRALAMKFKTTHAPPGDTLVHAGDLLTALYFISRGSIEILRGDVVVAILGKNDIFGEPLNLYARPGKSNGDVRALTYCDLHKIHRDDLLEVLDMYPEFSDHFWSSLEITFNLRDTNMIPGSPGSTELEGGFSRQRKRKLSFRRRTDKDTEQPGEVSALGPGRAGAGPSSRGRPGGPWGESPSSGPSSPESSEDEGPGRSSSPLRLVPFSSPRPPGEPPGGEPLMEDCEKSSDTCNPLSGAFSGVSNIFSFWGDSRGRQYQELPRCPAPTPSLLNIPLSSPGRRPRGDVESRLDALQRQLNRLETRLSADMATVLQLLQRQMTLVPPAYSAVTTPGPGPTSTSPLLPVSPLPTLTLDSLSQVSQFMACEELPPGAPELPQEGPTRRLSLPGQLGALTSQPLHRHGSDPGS

[4] = A. baumannii (n=100) clinical isolates

`Cc1c(CN(C)C(=O)/C=C/c2cnc3c(c2)CC[C@H](N)C(=O)N3)oc2ccccc12` [fabimycin] showed an MIC50 [1, 4] of 4 µg/mL (≈ 9.89 µM), an MIC90 [1, 4] of 8 µg/mL (≈ 19.8 µM) and an MIC ([1]; the 1 pan-resistant strain of the 100 A. baumannii clinical isolates) of 1 µg/mL (≈ 2.47 µM). The “rate of killing, time-kill growth curve” value (E. coli MG1655) was “not profoundly bactericidal”, the “cytotoxicity against human cell lines” value (HFF-1, A549, HepG2 cells) was “less cytotoxic relative to Debio-1452-NH3” and the MIC ([2]; FabI mutation A118T, plated at 16x MIC (32 μg/mL), colonies 4/5, read-out: MIC of mutants) was 64 to 128 µg/mL. For the same compound, the MIC ([2]; FabI mutation N160K, plated at 16x MIC (32 μg/mL), colonies 1/5, read-out: MIC of mutants) was 128 µg/mL, the MIC ([2]; read-out: MIC of mutants, FabI WT, plated at 8x MIC (16 μg/mL), colonies 2/5) was 8 to 16 µg/mL and the MIC ([2]; read-out: MIC of mutants, FabI mutation A118T, plated at 32x MIC (64 μg/mL), colonies 4/5) was 64 µg/mL. The MIC ([2]; read-out: MIC of mutants, FabI mutation A118V, plated at 8x MIC (16 μg/mL), colonies 1/5) was 128 µg/mL, the MIC ([2]; read-out: MIC of mutants, FabI mutation F206L, plated at 8x MIC (16 μg/mL), colonies 1/5) was 32 µg/mL and the MIC ([2]; read-out: MIC of mutants, FabI mutation G151S, plated at 32x MIC (64 μg/mL), colonies 1/5) was 64 µg/mL. The MIC ([2]; read-out: MIC of mutants, FabI mutation M162T, plated at 8x MIC (16 μg/mL), colonies 1/5) was 128 µg/mL, the MIC ([3]; MG1655, FabI mutation G148S, plated at 16x MIC (32 μg/mL), colonies 2/5, read-out: MIC of mutants) was ≥ 128 µg/mL and the MIC ([3]; MG1655, read-out: MIC of mutants, FabI mutation G148A, plated at 8x MIC (16 μg/mL), colonies 3/5) was 32 to 64 µg/mL. For the same compound, the MIC ([3]; MG1655, read-out: MIC of mutants, FabI mutation G148A, plated at 16x MIC (32 μg/mL), colonies 3/5) was 64 µg/mL, the MIC ([3]; MG1655, read-out: MIC of mutants, FabI mutation G148S, plated at 8x MIC (16 μg/mL), colonies 1/5) was 128 µg/mL and the MIC ([3]; MG1655, read-out: MIC of mutants, FabI mutation M159T, plated at 8x MIC (16 μg/mL), colonies 1/5) was 32 µg/mL. For the same compound, the “activity against the hERG ion channel” value (hERG ion channel) was “lower activity against the hERG ion channel relative to both Debio-1452 and Debio-1452-NH3”.
